Measured values from patent publication US20250186562A1, “TARGET SUBSTRATE PROTEIN DEGRADATION PLATFORM” (The Regents of the University of California, priority 2022, published 2025).
Non-standard residues stand in square brackets, D forms with d. Residues, ends and D or L forms follow the SMILES beside them. No end group written: not given here. ξ: configuration not given here. Tyr(3-NO2) = N[C@@H](Cc1ccc(O)c([N+](=O)[O-])c1)C(=O)O; dPhe(4-guanidino) = N=C(N)Nc1ccc(C[C@@H](N)C(=O)O)cc1; fluorescein = fluorescein attached to the C-terminus; Phe(4-guanidino) = N=C(N)Nc1ccc(C[C@H](N)C(=O)O)cc1; Tyr(3-F) = N[C@@H](Cc1ccc(O)c(F)c1)C(=O)O; Arg(Me2a) = CN(C)C(=N)NCCC[C@H](N)C(=O)O; Phe(4-NH2) = Nc1ccc(C[C@H](N)C(=O)O)cc1; His(τ-Me) = Cn1cnc(C[C@H](N)C(=O)O)c1; His(π-Me) = Cn1cncc1C[C@H](N)C(=O)O; 4Pal = N[C@@H](Cc1ccncc1)C(=O)O; 2Thi = N[C@@H](Cc1cccs1)C(=O)O; Ile(3ξ) = CCC(C)[C@H](N)C(=O)O

Columns and labels:
GST-Ubr-box of Ubr1 = GST-Ubr-box of Ubr1 (Homo sapiens (Human), UniProt Q8IWV7); assay: Competition fluorescence polarization (FP) assay, GST-Ubr-box of Ubr1; assay type: binding; conditions: for Ki: [GST-UBR1]=2 μM, tracer 9 nM, read-out: UBR1 Affinity Ki FP
Excerpt: (§1) Fluorescence Polarization (FP) assays were used to determine binding affinity of the peptidomimetic compounds for the Ubr box (FIGS. 4A-B). FIG. 1A depicts the mechanism of action of peptidomimetic compounds that include a linker. […] Binding affinities as determined by Structure Activity Relationship Studies (SARs) of additional peptidomimetic compounds to GST-Ubr-box of Ubr 1 and Ubr2 are shown in Table 1.
(§2) The FP assay uses a tetrapeptide with a sequence arginine-isoleucine-phenylalanine-serine (RIFS) with fluorescein attached to the C-terminus as tracer that was previously shown to bind to the Ubr-boxes of Ubr1 and Ubr2 with similar binding affinity. Assays were developed in 384-well plates, which were read on a Clariostar Reader. Signal-to-background ratio (S/B) was optimized by varying concentrations of GST-Ubr-box and tracer concentrations. GST-fusion proteins were used due to its larger size than Ubr-box alone to increase the FP effect. […] The optimized condition includes receptor concentration [GST-UBR1]=2 μM, tracer concentration [tracer]=9 nM, and the highest concentration of unlabeled peptidomimetic compound competitors at 200 μM with 3× serial dilutions.
(§3) Preliminary ITC measurements confirmed the FP measurements (FIG. 4C).

GST-Ubr-box of Ubr2 = GST-Ubr-box of Ubr2 (Homo sapiens (Human), UniProt Q8IWV8); assay: Competition fluorescence polarization (FP) assay, GST-Ubr-box of Ubr2; assay type: binding; conditions: read-out: UBR2 Affinity Ki FP
Excerpt: as §1, §2, §3

[1] = test system: Ubr-mediated GFP degradation (Ubiquitin-R-GFP model Ubr substrate); assay: R-GFP degradation in cells (fluorescent imaging); assay type: cell-based; conditions: cells expressing Ubiquitin-R-GFP
Excerpt: The peptidomimetic compound outcompetes the R-GFP model Ubr substrate for E3 binding, therefore preventing GFP degradation. The upper panels show fluorescent imaging of the cells and the lower panel show a bright field of the cells.

ERRα protein = ERRα protein (Homo sapiens (Human), UniProt P11474); assay: ERRα protein level in Hela cells by Western blot; assay type: cell-based; conditions: Hela cells treated overnight at 100 nM, 33.3 nM, and 11.1 nM; Western blot of whole cell lysates
Protocol: In this experiment, Hela cells were treated overnight at a concentration of 100 nM, 33.3 nM, and 11.1 nM with the above peptidomimetic compound. The ERRα protein was detected by Western blot from whole cell lysates. Glyceraldehyde 3-phosphate dehydrogenase (GAPDH) was blotted as loading control.

Ubr-box of Ubr1 = Ubr-box of Ubr1 (Homo sapiens (Human), UniProt Q8IWV7); assay: FP titration of GST-Ubr-box into tracer, Ubr1; assay type: binding; conditions: 9 nM tracer
Excerpt: as §2, §3

Ubr-box of Ubr2 = Ubr-box of Ubr2 (Homo sapiens (Human), UniProt Q8IWV8); assay: FP titration of GST-Ubr-box into tracer, Ubr2; assay type: binding; conditions: 9 nM tracer
Excerpt: as §2, §3

Sequence of GST-Ubr-box of Ubr1 (Q8IWV7 other isoform, or with tags, fused parts or gaps): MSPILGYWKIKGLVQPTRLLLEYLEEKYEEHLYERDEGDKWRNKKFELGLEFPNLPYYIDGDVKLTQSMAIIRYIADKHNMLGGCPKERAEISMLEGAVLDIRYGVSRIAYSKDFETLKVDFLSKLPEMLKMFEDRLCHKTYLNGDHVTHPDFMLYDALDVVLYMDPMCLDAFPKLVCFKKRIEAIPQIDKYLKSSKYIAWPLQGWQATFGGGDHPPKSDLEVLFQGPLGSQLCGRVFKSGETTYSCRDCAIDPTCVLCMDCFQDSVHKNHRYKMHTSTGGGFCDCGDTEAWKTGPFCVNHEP
Sequence of GST-Ubr-box of Ubr2 (Q8IWV8 other isoform, or with tags, fused parts or gaps): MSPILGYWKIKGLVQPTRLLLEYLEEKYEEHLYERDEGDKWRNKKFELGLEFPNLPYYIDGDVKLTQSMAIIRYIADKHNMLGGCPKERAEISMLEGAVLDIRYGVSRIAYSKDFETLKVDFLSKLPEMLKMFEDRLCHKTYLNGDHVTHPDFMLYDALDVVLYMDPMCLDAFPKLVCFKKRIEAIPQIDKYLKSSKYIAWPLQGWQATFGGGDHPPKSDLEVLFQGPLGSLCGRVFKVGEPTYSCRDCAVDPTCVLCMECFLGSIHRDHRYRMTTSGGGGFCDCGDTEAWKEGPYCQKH
Sequence of ERRα protein (P11474 whole entry): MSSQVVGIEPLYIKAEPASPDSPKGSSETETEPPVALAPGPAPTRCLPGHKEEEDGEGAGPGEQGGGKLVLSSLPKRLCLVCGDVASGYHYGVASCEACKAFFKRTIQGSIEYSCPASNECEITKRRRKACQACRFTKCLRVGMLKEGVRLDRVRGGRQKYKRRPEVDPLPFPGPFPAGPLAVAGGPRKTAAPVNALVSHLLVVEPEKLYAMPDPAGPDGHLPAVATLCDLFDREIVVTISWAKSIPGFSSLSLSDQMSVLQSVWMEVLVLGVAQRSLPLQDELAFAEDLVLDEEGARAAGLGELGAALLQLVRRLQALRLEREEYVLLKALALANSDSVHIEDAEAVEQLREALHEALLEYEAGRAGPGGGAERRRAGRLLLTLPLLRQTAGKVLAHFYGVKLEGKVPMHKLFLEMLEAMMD
Sequence of Ubr-box of Ubr1 (Q8IWV7 other isoform, or with tags, fused parts or gaps): as the sequence (Q8IWV7 other isoform, or with tags, fused parts or gaps) above
Sequence of Ubr-box of Ubr2 (Q8IWV8 other isoform, or with tags, fused parts or gaps): as the sequence (Q8IWV8 other isoform, or with tags, fused parts or gaps) above

Molecule | Ki (GST-Ubr-box of Ubr1) | Ki (GST-Ubr-box of Ubr2) | also measured
N=C(N)NCCC[C@H](N)C(=O)N[C@@H](Cc1ccc(O)c([N+](=O)[O-])c1)C(=O)N[C@@H](Cc1ccccc1)C(N)=O [Compound 1] | 1 to 10 µM | 1 to 10 µM | 
CC[C@H](C)[C@H](NC(=O)[C@@H](N)Cc1ccc(N=C(N)N)cc1)C(=O)N[C@@H](Cc1ccccc1)C(N)=O [Compound 2] (H-[Phe(4-guanidino)]-Ile-Phe-NH2) | 1 to 10 µM | < 1 µM | 
CC[C@H](C)[C@H](NC(=O)[C@@H](N)CCONC(=N)N)C(=O)N[C@@H](Cc1ccccc1)C(N)=O [Compound 3] | 10 to 100 µM | 10 to 100 µM | 
CC[C@H](C)[C@H](NC(=O)[C@@H](N)CCCNC(=N)NCC(F)(F)F)C(=O)N[C@@H](Cc1ccccc1)C(N)=O [Compound 4] | < 1 µM | < 1 µM | concentration at which R-GFP degradation in cells is blocked [1]: > 1 µM
CC[C@H](C)[C@H](NC(=O)[C@@H](N)Cc1ccc(NC(N)=O)cc1)C(=O)N[C@@H](Cc1ccccc1)C(N)=O [Compound 5] | > 100 µM | 10 to 100 µM | 
CC[C@H](C)[C@H](NC(=O)[C@@H](N)CCCN(C)C(=N)NC)C(=O)N[C@@H](Cc1ccccc1)C(N)=O [Compound 6] | > 100 µM | > 100 µM | 
CNC(=N)N(C)CCC[C@H](N)C(=O)N[C@@H](Cc1ccc(O)c(C)c1)C(=O)N[C@@H](Cc1ccccc1)C(N)=O [Compound 7] | 10 to 100 µM | 10 to 100 µM | 
CC[C@H](C)[C@H](NC(=O)[C@@H](N)Cc1nn[nH]n1)C(=O)N[C@@H](Cc1ccccc1)C(N)=O [Compound 8] | > 100 µM | > 100 µM | 
CCNC(=N)N(CC)CCC[C@H](N)C(=O)N[C@H](C(=O)N[C@@H](Cc1ccccc1)C(N)=O)[C@@H](C)CC [Compound 9] | 10 to 100 µM | 10 to 100 µM | 
CC[C@H](C)[C@H](NC(=O)[C@@H](N)Cc1cncn1C)C(=O)N[C@@H](Cc1ccccc1)C(N)=O [Compound 10] (H-[His(π-Me)]-Ile-Phe-NH2) | > 100 µM | > 100 µM | 
CNC(=N)N(C)CCC[C@H](N)C(=O)N[C@@H](Cc1ccc(O)c([N+](=O)[O-])c1)C(=O)N[C@@H](Cc1ccccc1)C(N)=O [Compound 11] | 10 to 100 µM | 1 to 10 µM | 
CNC(=N)N(C)CCC[C@H](N)C(=O)N[C@@H](Cc1ccc(O)c([N+](=O)[O-])c1)C(=O)N[C@@H](Cc1ccccc1)C(N)=O [Compound 12] | 1 to 10 µM | < 1 µM | 
CC[C@H](C)[C@H](NC(=O)[C@@H](N)Cc1cn(C)cn1)C(=O)N[C@@H](Cc1ccccc1)C(N)=O [Compound 13] (H-[His(τ-Me)]-Ile-Phe-NH2) | > 100 µM | > 100 µM | 
COc1ccc(C[C@H](NC(=O)[C@@H](N)CCCNC(=N)NCC(F)(F)F)C(=O)N[C@@H](Cc2ccccc2)C(N)=O)cc1 [Compound 14] | < 1 µM | < 1 µM | 
COc1ccc(C[C@H](NC(=O)[C@@H](N)CCCNC(=N)N(C)C)C(=O)N[C@@H](Cc2ccccc2)C(N)=O)cc1 [Compound 15] (H-[Arg(Me2a)]-Tyr(Me)-Phe-NH2) | < 1 µM | < 1 µM | 
COc1ccc(C[C@H](NC(=O)[C@H](N)Cc2ccc(N=C(N)N)cc2)C(=O)N[C@@H](Cc2ccccc2)C(N)=O)cc1 [Compound 16] (H-[dPhe(4-guanidino)]-Tyr(Me)-Phe-NH2) | < 1 µM | < 1 µM | 
NCC(=O)N[C@@H](Cc1ccc(O)c([N+](=O)[O-])c1)C(N)=O [Compound 17] (H-Gly-[Tyr(3-NO2)]-NH2) | > 100 µM | > 100 µM | 
NC(=O)[C@H](Cc1ccccc1)NC(=O)[C@@H](N)Cc1ccc(O)c([N+](=O)[O-])c1 [Compound 18] (H-[Tyr(3-NO2)]-Phe-NH2) | > 100 µM | > 100 µM | 

Molecule | Ki (GST-Ubr-box of Ubr1) | Ki (GST-Ubr-box of Ubr2) | also measured
CN(C)C(=N)NCCC[C@H](N)C(=O)N[C@@H](Cc1ccc(O)c([N+](=O)[O-])c1)C(=O)N[C@@H](Cc1ccccc1)C(N)=O [Compound 19] (H-[Arg(Me2a)]-[Tyr(3-NO2)]-Phe-NH2) | < 1 µM | < 1 µM | 
N=C(NCCC[C@H](N)C(=O)N[C@@H](Cc1ccc(O)c(Cl)c1)C(=O)N[C@@H](Cc1ccccc1)C(N)=O)NCC(F)(F)F [Compound 20] | < 1 µM | < 1 µM | 
CC[C@H](C)[C@H](NC(=O)[C@@H](N)Cc1cccs1)C(=O)N[C@@H](Cc1ccccc1)C(N)=O [Compound 21] (H-[2Thi]-Ile-Phe-NH2) | > 100 µM | > 100 µM | 
CC[C@H](C)[C@H](NC(=O)[C@H](Cc1ccccc1)NC(=O)[C@@H](N)Cc1ccncc1)C(N)=O [Compound 22] (H-[4Pal]-Phe-Ile-NH2) | > 100 µM | > 100 µM | 
CC[C@H](C)[C@H](NC(=O)[C@@H](N)Cc1ccncc1)C(=O)N[C@@H](Cc1ccccc1)C(N)=O [Compound 23] (H-[4Pal]-Ile-Phe-NH2) | > 100 µM | > 100 µM | 
CCC(C)[C@H](NC(=O)[C@@H](N)Cc1ccc(NC(C)=O)cc1)C(=O)N[C@@H](Cc1ccccc1)C(N)=O (some centres unmarked) [Compound 24] (H-[Phe(4-NH2)](Ac)-[Ile(3ξ)]-Phe-NH2) | 10 to 100 µM | 10 to 100 µM | 
N=C(N)NCCC[C@H](N)C(=O)N[C@@H](Cc1ccc(O)c(Cl)c1)C(=O)N[C@@H](Cc1ccccc1)C(N)=O [Compound 25] | 1 to 10 µM | 10 to 100 µM | 
CC(C[C@H](NC(=O)[C@@H](N)CCCNC(=N)N)C(=O)N[C@@H](Cc1ccccc1)C(N)=O)C(F)(F)F (some centres unmarked) [Compound 26] | < 1 µM | < 1 µM | 
CCC(C)C(NC(=O)[C@@H](N)CCCNC(=N)N)C(=O)N[C@@H](Cc1ccccc1)C(N)=O (some centres unmarked) [Compound 27] | 1 to 10 µM | 1 to 10 µM | 
CN(C)C(=N)NCCC[C@H](N)C(=O)N[C@@H](Cc1ccc(O)c(F)c1)C(=O)N[C@@H](Cc1ccccc1)C(N)=O [Compound 28] (H-[Arg(Me2a)]-[Tyr(3-F)]-Phe-NH2) | < 1 µM | 1 to 10 µM | 
CN(C)C(=N)NCCC[C@H](N)C(=O)N[C@@H](Cc1cscn1)C(=O)N[C@@H](Cc1ccccc1)C(N)=O [Compound 29] | 1 to 10 µM | 1 to 10 µM | 
CN(C)C(=N)NCCC[C@H](N)C(=O)N[C@@H](Cc1cccs1)C(=O)N[C@@H](Cc1ccccc1)C(N)=O [Compound 30] | < 1 µM | 1 to 10 µM | 
CN(C)C(=N)NCCC[C@H](N)C(=O)N1CCC[C@H]1C(=O)N[C@@H](Cc1ccccc1)C(N)=O [Compound 31] (H-[Arg(Me2a)]-Pro-Phe-NH2) | > 100 µM | > 100 µM | 
CC[C@H](C)[C@H](NC(=O)[C@@H](N)CCC/N=C(\N)N(C)C)C(=O)N[C@@H](Cc1ccccc1)C(N)=O [Compound 32] (H-[Arg(Me2a)]-Ile-Phe-NH2) | 1 to 10 µM | 1 to 10 µM | 
N=C(NCCC[C@H](N)C(=O)N[C@@H](Cc1ccc(O)c([N+](=O)[O-])c1)C(=O)N[C@@H](Cc1ccccc1)C(N)=O)NCC(F)(F)F [Compound 33] | < 1 µM | < 1 µM | 
COc1cc(/C=C2\SC(=O)N(Cc3cn(CCCNC(=O)[C@H](Cc4ccccc4)NC(=O)[C@H](Cc4ccc(O)c([N+](=O)[O-])c4)NC(=O)[C@@H](N)CCCNC(=N)NCC(F)(F)F)nn3)C2=O)ccc1Oc1ccc(C#N)cc1C(F)(F)F [above peptidomimetic compound] |  |  | levels of the ERRα protein in cells (ERRα protein): reduction of levels of the ERRα protein
tracer: tetrapeptide arginine-isoleucine-phenylalanine-serine (RIFS) with fluorescein attached to the C-terminus as tracer (RIFS-fluorescein) |  |  | binding of tracer to Ubr-box of Ubr1 (Ubr-box of Ubr1): can bind; binding of tracer to Ubr-box of Ubr2 (Ubr-box of Ubr2): can bind
unlabeled tetrapeptide: unlabeled tetrapeptide (RIFS sequence without fluorescein tag) used as competitor [reference compound] |  |  | displacement of tracer (GST-Ubr-box of Ubr1): Effective displacement of tracer
